The star is where a group is joined. Ac7‑β‑Cel = heptaacetyl-β-cellobioside (peracetylated β-cellobiose), CC(=O)OC[C@H]1O[C@@H](*)[C@H](OC(C)=O)[C@@H](OC(C)=O)[C@@H]1O[C@@H]1O[C@H](COC(C)=O)[C@@H](OC(C)=O)[C@H](OC(C)=O)[C@H]1OC(C)=O; Ac7‑β‑Lac = heptaacetyl-β-lactoside (peracetylated β-lactose), CC(=O)OC[C@H]1O[C@@H](O[C@H]2[C@H](OC(C)=O)[C@@H](OC(C)=O)[C@H](*)O[C@@H]2COC(C)=O)[C@H](OC(C)=O)[C@@H](OC(C)=O)[C@H]1OC(C)=O; Ac4‑β‑Gal = tetraacetyl-β-galactoside (peracetylated β-galactose), CC(=O)OC[C@H]1O[C@@H](*)[C@H](OC(C)=O)[C@@H](OC(C)=O)[C@H]1OC(C)=O; Ac3‑α‑Rha = triacetyl-α-rhamnoside (peracetylated α-rhamnose), CC(=O)O[C@@H]1[C@@H](OC(C)=O)[C@H](C)O[C@@H](*)[C@@H]1OC(C)=O; Ac3‑β‑Xyl = triacetyl-β-xyloside (peracetylated β-xylose), CC(=O)O[C@@H]1[C@@H](OC(C)=O)[C@H](OC(C)=O)CO[C@H]1*; Palmitoyl = CCCCCCCCCCCCCCCC(=O)*
System: Human Dermal Fibroblasts (KMST-6)
Assay: ECM ELISA assay: elastin secretion by human dermal fibroblasts
Assay type: cell-based
Details: 5 μM, % compared to control set at 100%, normalized to total protein; for Elastin Secretion at 48 hours: KMST-6, 48 hours; for Elastin Secretion at 72 hours: KMST-6, 72 hours
Procedure: KMST-6 cells (Japan Health Sciences Foundation, JCRB0433) were seeded at 7,000 cells/ml in 12-well tissue culture treated plates (Falcon, 353043) in complete media. The complete media consisted of the following: MEM/EBSS (Hyclone, SH30024.01), 10% Heat-Inactivated FBS (Gibco, 10082-147), 1% L-Glutamine (Hyclone, SH30031.01), 1% Nucleosides (800 mg/L Adenosine, 850 mg/L Guanidine, 730 mg/L Cytidine, 730 mg/L Uridine and 240 mg/L Thymidine), 1% Penicillin/Streptomycin (HyClone, SV30010), 1% Sodium Pyruvate (HyClone, SH30239.01), 1% Non-Essential Amino Acids (Hyclone, SH30238.01) and 0.04% Gentamicin (Gibco, 15710-064). Cells were grown for 2 days prior to treatments. The media was aspirated and cells were washed with 1×PBS (Fisher, SH30256.01) and treated with 5 μM (1 mL/well) glycopeptides, reference (Pal-KTTKS, CPC Scientific, 822197), and control (DMSO, Fisher, BP231-100) in serum-free media supplemented with 50 μg/mL Sodium Ascorbate (Sigma, A4034) and 80 μg/mL β-Aminopropionate Fumarate (Sigma, A3134). The treated cells were incubated at 37° C. and 5% CO2 for 48 and 72 hours. At each timepoint, media from each treatment was collected and centrifuged at 1500 RPM for 15 minutes at 4° C. The supernatant was collected and stored at −80° C. for extracellular matrix protein quantification. The following kits were used for quantification of ECM proteins: Fibronectin (Takara, MK115) and Elastin (Uscn Life Science Inc., E91337Hu). The cells were harvest and lysed with 250 μL Lysis Buffer (20 mM Tris-HCl (Sigma, T1503), 137 mM NaCl (Sigma, S9888), 2 mM EDTA (Fisher, BP118), 1% IGEPAL (Sigma, 18896), 10% Glycerol (Sigma, G5516), 100 μM PMSF (Fisher, 36978) and 10 μg/mL Leupeptin (Sigma-Aldrich, L2884). They were placed on a container of ice on a plate shaker (Lab-Line Instruments, 3595) for 30 minutes. The lysate was centrifuged at 10,000 g for 5 minutes at 4° C. The supernatant was collected and used for protein quantification (BioRad, 500-0112).
To determine effects on extracellular matrix protein secretion, 5 μM of individual glycopeptides were incubated with Human Dermal Fibroblasts (KMST-6). The control sample cells were treated with DMSO (Fisher, BP231-100). As described previously, supernatant was collected from treated cells (at two time-points, 48 and 72 hours of treatment) and stored at −80° C. for subsequent extracellular matrix protein quantification using ELISA kits (Fibronectin (Takara, MK115), Elastin (Uscn Life Science Inc., E91337Hu). For the determination of total cellular protein, treated cells were harvested and lysed. The lysate was centrifuged, the supernatant was collected and then used for protein quantification (BioRad, 500-0112). ELISA plates were read on the plate reader (Molecular Devices) at absorbance of 450 nm and SoftMax Pro software was used to compute the μg/ml values of protein of interest derived from the generated 4-parameter fit standard curve. Each μg/ml of protein secreted was normalized to total protein per well. The data was analysed by averaging out normalized values from at least three independent experiments and presenting them as a % compared to control treatment set at 100% (Table 2-5). Statistical significance was performed using One-way ANOVA (p<0.05) where “*” represents statistical significance when compared to control and “#” represents statistical significance when compared to reference. […]

Substance	Elastin Secretion at 48 hours	Elastin Secretion at 72 hours
Pal-KTTKS(Ac3-β-Xyl)-OH (Palmitoyl-KTTKS(Ac3‑β‑Xyl)-OH; SMILES CCCCCCCCCCCCCCCC(=O)N[C@@H](CCCCN)C(=O)N[C@H](C(=O)N[C@H](C(=O)N[C@@H](CCCCN)C(=O)N[C@@H](CO[C@@H]1OC[C@@H](OC(C)=O)[C@H](OC(C)=O)[C@H]1OC(C)=O)C(=O)O)[C@@H](C)O)[C@@H](C)O; listed as Homo sapiens) [GP004-11]	178.8%	121.3%
Pal-KT(Ac7-β-Lac)TKS-OH (Palmitoyl-KT(Ac7‑β‑Lac)TKS-OH; SMILES CCCCCCCCCCCCCCCC(=O)N[C@@H](CCCCN)C(=O)N[C@H](C(=O)N[C@H](C(=O)N[C@@H](CCCCN)C(=O)N[C@@H](CO)C(=O)O)[C@@H](C)O)[C@@H](C)O[C@@H]1O[C@H](COC(C)=O)[C@@H](O[C@@H]2O[C@H](COC(C)=O)[C@H](OC(C)=O)[C@H](OC(C)=O)[C@H]2OC(C)=O)[C@H](OC(C)=O)[C@H]1OC(C)=O; listed as Homo sapiens) [GP004-5]	195.3%	209.5%
Pal-KT(Ac3-α-Rha)TKS-OH (Palmitoyl-KT(Ac3‑α‑Rha)TKS-OH; SMILES CCCCCCCCCCCCCCCC(=O)N[C@@H](CCCCN)C(=O)N[C@H](C(=O)N[C@H](C(=O)N[C@@H](CCCCN)C(=O)N[C@@H](CO)C(=O)O)[C@@H](C)O)[C@@H](C)O[C@@H]1O[C@@H](C)[C@H](OC(C)=O)[C@@H](OC(C)=O)[C@H]1OC(C)=O; listed as Homo sapiens) [GP004-7]	241.0%	193.0%
Pal-KT(Ac4-β-Gal)TKS-OH (Palmitoyl-KT(Ac4‑β‑Gal)TKS-OH; SMILES CCCCCCCCCCCCCCCC(=O)N[C@@H](CCCCN)C(=O)N[C@H](C(=O)N[C@H](C(=O)N[C@@H](CCCCN)C(=O)N[C@@H](CO)C(=O)O)[C@@H](C)O)[C@@H](C)O[C@@H]1O[C@H](COC(C)=O)[C@H](OC(C)=O)[C@H](OC(C)=O)[C@H]1OC(C)=O; listed as Homo sapiens) [GP004-1]	215.3%	202.0%
Pal-KTTKS(Ac7-β-Cel)-OH (Palmitoyl-KTTKS(Ac7‑β‑Cel)-OH; SMILES CCCCCCCCCCCCCCCC(=O)N[C@@H](CCCCN)C(=O)N[C@H](C(=O)N[C@H](C(=O)N[C@@H](CCCCN)C(=O)N[C@@H](CO[C@@H]1O[C@H](COC(C)=O)[C@@H](O[C@@H]2O[C@H](COC(C)=O)[C@@H](OC(C)=O)[C@H](OC(C)=O)[C@H]2OC(C)=O)[C@H](OC(C)=O)[C@H]1OC(C)=O)C(=O)O)[C@@H](C)O)[C@@H](C)O; listed as Homo sapiens) [GP004-10]	211.3%	187.0%
Pal-KTTKS(Ac7-β-Lac)-OH (Palmitoyl-KTTKS(Ac7‑β‑Lac)-OH; SMILES CCCCCCCCCCCCCCCC(=O)N[C@@H](CCCCN)C(=O)N[C@H](C(=O)N[C@H](C(=O)N[C@@H](CCCCN)C(=O)N[C@@H](CO[C@@H]1O[C@H](COC(C)=O)[C@@H](O[C@@H]2O[C@H](COC(C)=O)[C@H](OC(C)=O)[C@H](OC(C)=O)[C@H]2OC(C)=O)[C@H](OC(C)=O)[C@H]1OC(C)=O)C(=O)O)[C@@H](C)O)[C@@H](C)O; listed as Homo sapiens) [GP004-6]	218.6%	170.0%
Pal-KTTKS(Ac3-α-Rha)-OH (Palmitoyl-KTTKS(Ac3‑α‑Rha)-OH; SMILES CCCCCCCCCCCCCCCC(=O)N[C@@H](CCCCN)C(=O)N[C@H](C(=O)N[C@H](C(=O)N[C@@H](CCCCN)C(=O)N[C@@H](CO[C@@H]1O[C@@H](C)[C@H](OC(C)=O)[C@@H](OC(C)=O)[C@H]1OC(C)=O)C(=O)O)[C@@H](C)O)[C@@H](C)O; listed as Homo sapiens) [GP004-8]	166.8%	169.3%

Source: patent US9856290B2, “Glycopeptide compositions and uses thereof” (SUSSEX RESEARCH LABORATORIES INC., priority 2013, dated 2018)
